In brackets after ≈: the same amount, converted by molar mass. Several values for one entry are separate records, joined by “and”; a condition that tells them apart may be missing. Equal values may be shown once. Read-outs that look alike come from different tables or passages of the source.
What was measured:
[1] = Oxygen radical absorbance capacity (ORAC) assay
Procedure: The ORAC assay was performed following Ou et al., as modified by Garcés-Rimón et al.. All samples and reagents were dissolved in phosphate buffer (75 mM; pH 7.4). […] The fluorescence was recorded at 40 °C every 55 s for 95 min using a fluorimeter (SpectraMax M2; Molecular Devices, California, USA), with excitation and emission wavelengths of 480 and 520 nm, respectively. All samples were tested in triplicate. ORAC values were expressed as μmol of Trolox equivalents (TE)/μmol of pure compound.

[2] = ABTS radical cation scavenging assay
Procedure: The 2,2′-azino-bis (3-ethylbenzothiazoline-6-sulfonic acid) diammonium salt (ABTS) assay was performed according to Re et al. and modified by Oki et al. for its use in microplates. Samples were diluted in methanol. An ABTS^•+ stock solution was prepared by adding 44 μL of potassium persulfate (140 mmol/L) to a 2.5 mL ABTS^•+ aqueous solution (7 mmol/L). The working solution of the radical ABTS^+ was prepared by diluting the stock solution 1:75 (v/v) in a sodium phosphate buffer (5 mmol/L, pH 7.4) to obtain an absorbance value of 0.7±0.02 at 734 nm. Samples (30 μL) were added to 270 μL of the working solution of ABTS^•+ in a microplate. Absorbance was measured at 734 nm and 30 °C for 20 min, every 5 min in a Synergy HT plate spectrophotometer (Biotek Instruments, Winoosky, VT, USA). A calibration curve was made with Trolox (20–250 μM). All samples were analyzed in triplicate. Results were expressed in μmol TE/μmol of pure compound, as for the ORAC assays.

[3] = DPPH free radical scavenging assay (RSA); details: for concentration down to which RSA ability is maintained independently of time: 10 min to 2 h; for RSA capacity fold higher compared to resveratrol: after 10 min, from IC50; for RSA percentage: highest concentration 2 mM, 10 min
Procedure: For the 2,2′-diphenylpicrylhydrazyl (DPPH) assay, antioxidant compounds were dissolved in ethanol with a stock concentration of 4 mM and stirred for 24 h. DPPH (Alfa Aesar) was also dissolved in ethanol at 0.127 mM. Different compound solutions were prepared by serial dilutions of each stock solution ([…]). […] Amounts of 80 µL of each solution and 80 µL of DPPH were added in a 96-well plate. The absorbance was measured at different times (10, 20 and 30 min and 1 and 2 h) by a Multi-Detection Microplate Reader Synergy HT (λMAX = 515 nm). Radical scavenging activity (RSA, %) was calculated using Equation (1) (1) RSA(%)=ADPPH−AEXTRACT/ADPPH·100 where AEXTRACT and ADPPH correspond to the absorbance of DPPH with and without the extracts, respectively. Eight replicates were used for each compound and results were expressed as mean value ± standard deviation. The RSA half-maximal inhibitory concentration (IC50) values were calculated from the relationship curve of RSA versus concentrations by a non-linear fit using the software GraphPad Prism 7.

[4] = Stability in aqueous media (H2O/acetonitrile 80:20, HPLC-MS); format: physicochemical; details: for stability in aqueous media: H2O/acetonitrile (80:20%), room temperature, checked for 60 days; for Aqueous Stability (%): remaining pure compound (HPLC) after two months at room temperature in aqueous solution (+20% acetonitrile)
Excerpt: The solutions were checked by HPLC-MS at regular intervals of time for 60 days. […] The rest of the compounds suffered progressive degradation, with complete disappearance from the solution after 10 or 20 days. The most unstable polyphenol derivatives were 4 and 10 (Figure S1), having both two p-dihydroxy substitutions in the phenyl rings, which points to the rapid and easy oxidation to the p-hydroquinone. From the four compounds with three phenyl rings, only one was stable in aqueous solution (17).

[5] = test system: human dermal fibroblasts (HDF); assay: Cell viability, AlamarBlue assay; format: cell-based; details: for IC50: 24 h, AlamarBlue, non-linear fit
Procedure: Cytotoxicity of selected antioxidant compounds was assessed using human dermal fibroblasts (HDF, Innoprot, P10856) and an AlamarBlue assay. Human fibroblasts were grown and maintained using Dulbecco’s Modified Eagle Medium high glucose (DMEM, Sigma Aldrich, D6171), supplemented with 10% Fetal Bovine Serum (FBS), 2% L-glutamine and 1% penicillin/streptomycin. Cells were incubated at 37 °C, 95% relative humidity and 5% CO2. Additionally, DMEM-high glucose, HEPES, no phenol red (Gibco, 2106329) was used to prepare the AlamarBlue solution. Stock solutions of the antioxidant compounds 3, 8, 15 and 17 were prepared in dimethyl sulfoxide (DMSO). Compound 7 was not soluble enough in DMSO to obtain a cell viability IC50 value. Serial dilutions of the antioxidant compounds were prepared using the previously mentioned stock solutions and DMEM. Final DMSO concentration was maintained lower than 1% v/v in the cell culture experiments. HDF were seeded at 9 × 10^4 cells/well in a 96-well plate and incubated for 24 h. The medium was replaced by the corresponding antioxidant solutions and incubated for an additional 24 h. Then, compounds were removed, cells were washed with Dulbecco’s Phosphate Buffered Saline (PBS, Sigma Aldrich) and treated with a 10% v/v AlamarBlue (Invitrogen) solution prepared in DMEM without phenol red. After 3 h of incubation, absorbance was monitored at 570 nm by a Multi-Detection Microplate Reader Synergy HT. Cells treated with DMEM without any antioxidant compound were used as the 100% viability control. Eight replicates were used for each antioxidant solution. IC50 values were obtained by a non-linear fit using the software GraphPad Prism 7.

[6] = test system: NADPH oxidase activity in human microvascular endothelial cells (HMEC-1); assay: NADPH oxidase activity in endothelial cells stimulated with Angiotensin II; format: cell-based; details: HMEC-1, AngII 1 nmol/L 6 h, compound added 30 min before
Procedure: The human microvascular endothelial cells line (HMEC-1) (ATCC®, Middlesex, UK; CRL-3243™) was used. Cells were cultured according to the manufacturer instructions with MCDB131 medium (Corning, NY, USA, Cat. No. 702564) supplemented with 10 ng/mL epidermal growth factor (Sigma-Aldrich, Alcobendas, Spain), 1 μg/mL hydrocortisone (Sigma-Aldrich), 10 mmol/L glutamine (Sigma-Aldrich), 10% fetal bovine serum (FBS, Sigma-Aldrich), 100 U/mL of penicillin and 100 µg/mL of streptomycin. At 80% confluence, cells were serum-deprived for 24 h before stimulation. HMEC were treated with AngII (1 nmol/L for 6 h; Sigma-Aldrich) in the absence or in the presence of the different compounds that were added 30 min before stimulation.
(§1) The O2 production generated by NADPH oxidase was determined by a chemiluminescence assay. Briefly, endothelial cells or aortic segments were homogenized in phosphate buffer (50 mmol/L KH2PO4, 1 mmol/L EGTA, 150 mmol/L sucrose, pH 7.4). The reaction was started by the addition of a lucigenin (5 μmol/L) and NADPH (100 μmol/L; Sigma-Aldrich) mixture to the protein sample in a final volume of 250 μL. Chemiluminescence was determined every 2.4 s for 3 min in a microtiter plate luminometer (Enspire Perkin Elmer). Basal activity in the absence of NADPH was subtracted from each reading and normalized to protein concentration. Data were normalized vs. control situation.

[7] = test system: NADPH oxidase activity in segments of aorta from C57BL6/J mice; assay: NADPH oxidase activity in aortic segments stimulated ex vivo with IL-1β; details: IL-1β 10 ng/mL 6 h
Procedure: Aortic segments from three-month-old C57BL6/J mice were incubated with IL-1β (10 ng/mL, 6 h, Sigma Aldrich) in the presence and in the absence of the different compounds that were added 30 min before stimulation.
as §1

[8] = Aqueous thermodynamic solubility in H2O (UV); format: physicochemical; details: water, thermodynamic from solid
Excerpt: 4) Log P and aqueous solubility of selected compounds.
Table S2. Theoretical Log P values and aqueous thermodynamic solubility measured for
Comp `Chemical Structure MW LogP Calc Aqueous Solubility a
a Thermodynamic solubility in H 2O (UV). […]

[9] = test system: Saccharomyces cerevisiae strain BY4741; assay: In vivo antioxidant capacity in stressed yeasts (growth recovery, survivors); format: cell-based
Procedure: Saccharomyces cerevisiae haploid strain BY4741 was used as described previously. Briefly, 20 μL of glycerol stock culture was revived in 5ml of YPD medium (1% yeast extract, 2% bacteriological peptone and 2% dextrose) at 28 °C, with shaking (210 rpm). Fifty microliters of 20-h-old culture was used to inoculate fresh 5ml YPD (control medium) or 5 mL of oxidative stress medium (YPOxD: YPOxD; 1% yeast extract, 2% bacteriological peptone, 1% dextrose and 3% H2O2). Stress (and control) was conducted during 16h at 28 °C, with shaking (220 rpm).
Growth rate was determined from growth kinetics using the BioScreen C plate-reader system (OY Growth Curves Ab Ldt., Helsinki, Finland). Stressed yeast cultures (16 h old) were used to inoculate 200 µl of fresh media to an initial OD595 of 0.05–0.07, being distributed in 100-well honeycomb plates (Oy Growth Curves) in triplicate per each condition (each different dose of each compound). Plates were then incubated at 28 °C for 72h, with shaking (High force), taking OD measurement each 15 min in the Bioscreen C. Maximum growth rate (μmax) and biomass production (carrying capacity) were determined in R using ‘Growthcurver’ package version 0.3 [24]. Growth curves were constructed in EXCEL, represented as mean ± SEM (standard error of mean). […] In addition, to measure survival after oxidative stress and antioxidant effectiveness of each compound, yeast cells from each challenge were serially diluted in 96-well plates, and each dilution was spotted (with a 8 × 6 stainless steel replica platter from SIGMA) in triplicate to determine viable colonies after 24–48 h at 28 °C. Survivors (mean ± SEM) were compared between treatments with one-way ANOVA, Fisher’s LSD test, with alpha at 0.05 for significance.

[10] = compound needed to reach 50% RSA after 10 min, read-out: DPPH PSA IC50 10 min
[11] = read-out: DPPH PSA IC50 2 h, compound needed to reach 50% RSA after 2 h

Structure (SMILES) | ORAC [1] | ORAC ([1]; TE: Trolox Equivalents) [TE] | ABTS [2] | ABTS (values in text) [2] [TE] | concentration down to which RSA ability is maintained independently of time [3] [mM] | RSA capacity fold higher compared to resveratrol [3] [fold] | IC50 [3, 10] [µM] | RSA percentage [3] [%] | IC50 [3, 11] [µM] | stability in aqueous media [4] | Aqueous Stability (%) [4] [%] | IC50 [5] | IC50 ([5]; Homo sapiens, Fibroblast) [µM] | effect on NADPH oxidase activity induced by Angiotensin II [6] | effect on NADPH oxidase activity induced by IL-1β [7] | solubility [8] [mg/mL] | melting point | other results
O=C(Cc1cc(O)ccc1O)Nc1ccc(O)cc1 [Compound 3, 2-(2′,5′-Dihydroxyphenyl)-N-(4-hydroxyphenyl)acetamide] | 19.2 ± 0.2 µmol of trolox/µmol of pure compound | > 19 | 3.27 ± 0.1 µmol of trolox/µmol of pure compound | 3.2 | 0.031 | 8 | 8.3 | ~78 | 6.77 | sufficiently stable | 77 | 246 µM and 240 µM | 246 | decreasing NADPH oxidase activity levels in the same order as resveratrol | significant inhibition of the IL-1β effects | 1.3 ± 0.1 (≈ 5.01 mM) | 185 to 187 °C (dec.) | RSA ([3]; 0.031 mM, maintained from 10 min to 2 h): 78%; cell viability IC50 fold lower than compounds 17 and 8 [5]: 5–7 fold
O=C(Cc1ccc(O)c(O)c1)Nc1ccc(O)cc1 [Compound 7, 2-(3′,4′-Dihydroxyphenyl)-N-(4-hydroxyphenyl)acetamide] | 19.2 ± 0.4 µmol of trolox/µmol of pure compound and 19.2 ± 0. µmol of trolox/µmol of pure compound | > 19 | 8.12 ± 0.09 µmol of trolox/µmol of pure compound | 8.1 | 0.063 | 2.8 | 24.1 | 82 | 23.3 | sufficiently stable | 90 | – | – | decreasing NADPH oxidase activity levels in the same order as resveratrol | significant inhibition of the IL-1β effects | 3.1 ± 0.1 (≈ 12 mM) | 192 to 194 °C | cytotoxic effects ([5]; range where soluble in DMSO (up to 6 mM)): did not show any significant cytotoxic effects
O=C(Cc1ccc(O)cc1O)Nc1ccc(O)cc1 [Compound 8, 2-(2′,4′-Dihydroxyphenyl)-N-(4-hydroxyphenyl)acetamide] | 19.3 ± 0.5 µmol of trolox/µmol of pure compound | > 19 | 5.00 ± 0.09 µmol of trolox/µmol of pure compound | – | – | – | 151 | 67 | 64.2 | sufficiently stable | 98 | > 1400 µM | 1410 | – | – | 4.1 ± 0.1 (≈ 15.8 mM) | 186 to 189 °C | growth rate (r) recovery of stressed yeast ([9]; H2O2-stressed BY4741, doses 2, 20 and 40 μg): dose-related antioxidant effect; carrying capacity (k) recovery of stressed yeast ([9]; H2O2-stressed BY4741, each dose tested): able to recover the carrying capacity of yeast cells similarly as control antioxidants

Reference: article PMC7555119, “Characterization of Novel Synthetic Polyphenols: Validation of Antioxidant and Vasculoprotective Activities” (Antioxidants, 2020)
